Measured values published in patent US20250084097A1, “MACROCYCLIC AMIDE COMPOUNDS AND APPLICATION THEREOF” (Medshine Discovery Inc., priority 2021, published 2025).
Like-named read-outs stand apart in the source and are kept apart here.

How the values were obtained:
[1] = molecular target: Ba/F3-FL-EGFR (L858R/T790M/C797S) (Homo sapiens, UniProt P00533, T790M/C797S/L858R, cells depend on it); assay: Cell proliferation inhibition, CellTiter-Glo; assay type: cell-based
Experimental: AdenosineTri-Phosphate (ATP) is an energy carrier shared by various life activities in nature, and is the smallest unit of energy storage and transfer. The CellTiter-Glo™ living cell assay kit uses luciferase as a detector, and luciferase requires the participation of ATP in the process of luminescence. CellTiter-Glo™ reagent is added to a cell culture medium, and the luminescence value is measured. The light signal is directly proportional to the amount of ATP in the system, and ATP is positively correlated with the number of living cells. Therefore, cell proliferation can be detected by detecting ATP content with the CellTiter-Glo kit. In this assay, the cell lines were Ba/F3-FL-EGFR (L858R/T790M/C797S), Ba/F3-FL-EGFR (WT), Ba/F3-FL-EGFR (L858R), Ba/F3-FL-EGFR (del19-S752-I759), Ba/F3-FL-EGFR (del19-E746-A750/T790M/C797S), Ba/F3-FL-EGFR (L858R/T790M), Ba/F3-FL-EGFR (del19-E746-A750/T790M), Ba/F3-TEL-EGFR (L858R/C797S), Ba/F3-FL-EGFR (del19-E746-A750/C797S) stably transfected cell lines.
The cell lines were cultured in an incubator at 37° C. and 5% CO2. The cells were periodically passaged, and cells in logarithmic growth phase were taken for plating.
a) DMSO was used to prepare a 10 mM solution of the compound to be tested, and then the compound to be tested was diluted to 0.3 or 1 mM with DMSO.
b) Preparation of 1000× compound storage plate (tube): DMSO was used to dilute by 3-fold gradient from the highest concentration to the lowest concentration, with a total of 9 concentrations.
c) Preparation of 20× compound working solution: 49 μL of cell culture medium was added to a flat-bottomed 96-well transparent drug plate, and 1 μL of compound was pipetted from the 1000× compound storage plate to the cell culture medium of the 96-well transparent drug plate. 1 μL of DMSO was added to the vehicle control. After adding compound or DMSO, the well content was mixed to uniform by aspiration and expelling with pipette.
a) Cells were stained with trypan blue and viable cells were counted. The cell viability rate was required to be above 90%.
b) 95 μL of cell suspension (2000 cells/well) was added to each well of the compound detection cell plate, and culture medium without cells (containing 0.1% DMSO) was added to the Min control well.
c) Dosing in the compound detection cell plate: 5 μL of 20× compound working solution was added to the cell culture plate. 5 μL of DMSO-cell culture mixture was added to the Max control. The final concentration of DMSO was 0.1%.
d) The culture plate was incubated in an incubator at 37° C., 5% CO2 for 72 hours.
Cell proliferation inhibition rate (Inhibition Rate) data were processed using the following formula:
Inhibition Rate (Inh %)=100−(RLUDrug−RLUMin)/(RLUMax−RLUMin)*100%.
The inhibition rates corresponding to different concentrations of compounds were calculated, and then GraphPad Prism software was used to draw the inhibition rate curve and the IC50 value was calculated.

[2] = Pharmacokinetic assay of compounds in mice; assay type: in vivo, male ICR mice; conditions: for Vd / AUC(0-t) / half-life / C0 / bioavailability / Cmax / Tmax: male, ICR, mouse, plasma; for Vd: read-out: Apparent volume of distribution Vd; for AUC(0-t): read-out: Area under the curve AUC0-last; for half-life: read-out: Half-life T1/2 (converted); for C0: read-out: Starting concentration C0; for bioavailability: PO 10 mg/kg vs IV 3 mg/kg, read-out: Bioavailability F %; for Cmax: read-out: Peak concentration Cmax; for Tmax: read-out: Time to peak Tmax
From the text: Assay purpose: 7-9-week-old male ICR mice were used as test animals. LC/MS/MS method was used to determine the drug concentration of the compound in the plasma at different times after a single intravenous injection (IV) and oral administration (PO) of the compound, to study the pharmacokinetic behavior of the compounds of the present disclosure in mice, and to evaluate their pharmacokinetic characteristics.
Formulation of drug: The compounds were formulated as solutions in the respective solvents for administration in IV (intravenous injection) and PO (oral administration) groups. The dose of each compound was 3 mg/kg for IV and 10 mg/kg for PO, and the vehicle was 10% DMSO+10% solutol+80% (10% HP-β-CD).

[3] = Body weight of animals in the in vivo efficacy assay; conditions: for Body weight of the mice compared to the control group (tolerance): 10 days of continuous administration, 10 mg/kg and 25 mg/kg
Experimental: Dosage according to mouse body weight: 10 μL/g. If the body weight decreases by more than 20%, the dosing regimen was adjusted accordingly.
The formulation and any modifications of this assay protocol were evaluated and approved by the Laboratory Animal Welfare Ethics Committee of the testing institution. The health status and death of animals were checked every day. Routine inspections included tumor growth, activity, diet, body weight, eyes, hair and other abnormal behaviors of animals. Tumor volume and body weight were measured three times a week (Monday, Wednesday and Friday). The tumor volume was measured with a vernier caliper, and the formula was TV=0.5 a×b^2, where a is the long diameter of a tumor and b is the short diameter of a tumor.
The body weight of assay animals was used as a reference index to indirectly determine drug toxicity.

[4] = 72 hours, read-out: Cell half-maximal inhibition concentration IC50 Ba/F3-FL-EGFR (L858R/T790M/C797S)
[5] = 10 mg/kg/bid, day 0 after administration
[6] = 10 mg/kg/bid, day 3 after administration
[7] = 10 mg/kg/bid, day 5 after administration
[8] = 10 mg/kg/bid, day 7 after administration
[9] = 10 mg/kg/bid, day 10 after administration
[10] = 25 mg/kg/bid, day 0 after administration
[11] = 25 mg/kg/bid, day 3 after administration
[12] = 25 mg/kg/bid, day 5 after administration
[13] = 25 mg/kg/bid, day 7 after administration
[14] = 25 mg/kg/bid, day 10 after administration

Ba/F3-FL-EGFR (L858R/T790M/C797S), sequence (P00533 whole entry T790M/C797S/L858R): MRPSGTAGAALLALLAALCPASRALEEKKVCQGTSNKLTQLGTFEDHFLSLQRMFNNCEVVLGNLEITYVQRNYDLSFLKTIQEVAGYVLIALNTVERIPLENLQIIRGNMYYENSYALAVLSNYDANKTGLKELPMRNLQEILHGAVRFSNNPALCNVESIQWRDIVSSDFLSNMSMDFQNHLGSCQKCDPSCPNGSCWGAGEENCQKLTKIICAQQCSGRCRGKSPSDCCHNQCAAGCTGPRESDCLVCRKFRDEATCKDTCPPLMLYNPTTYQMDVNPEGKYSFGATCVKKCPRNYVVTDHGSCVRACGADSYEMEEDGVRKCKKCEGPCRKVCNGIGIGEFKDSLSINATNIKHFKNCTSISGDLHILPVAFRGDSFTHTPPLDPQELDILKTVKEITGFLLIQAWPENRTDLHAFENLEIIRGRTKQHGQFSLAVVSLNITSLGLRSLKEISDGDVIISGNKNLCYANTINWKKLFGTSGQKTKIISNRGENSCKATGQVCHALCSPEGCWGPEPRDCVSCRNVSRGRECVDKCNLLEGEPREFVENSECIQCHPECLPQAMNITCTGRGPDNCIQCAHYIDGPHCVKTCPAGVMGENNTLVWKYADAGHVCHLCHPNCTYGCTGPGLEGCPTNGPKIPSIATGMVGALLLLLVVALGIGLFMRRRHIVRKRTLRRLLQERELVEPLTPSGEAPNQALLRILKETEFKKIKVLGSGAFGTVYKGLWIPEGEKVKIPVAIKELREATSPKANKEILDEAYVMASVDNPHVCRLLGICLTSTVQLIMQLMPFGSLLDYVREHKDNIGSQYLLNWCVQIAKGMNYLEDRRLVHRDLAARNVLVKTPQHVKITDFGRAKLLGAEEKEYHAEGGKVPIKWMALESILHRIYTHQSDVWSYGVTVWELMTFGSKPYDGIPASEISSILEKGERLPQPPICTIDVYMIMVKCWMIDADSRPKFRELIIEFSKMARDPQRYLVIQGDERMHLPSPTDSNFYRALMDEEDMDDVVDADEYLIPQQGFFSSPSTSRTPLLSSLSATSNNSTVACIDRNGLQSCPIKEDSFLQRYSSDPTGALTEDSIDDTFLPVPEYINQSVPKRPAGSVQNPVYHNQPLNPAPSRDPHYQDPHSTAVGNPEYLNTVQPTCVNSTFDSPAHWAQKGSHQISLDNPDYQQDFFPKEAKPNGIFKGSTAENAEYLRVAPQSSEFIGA

| Compound | GI50 [1, 4] [nM] | Apparent clearance Cl ([2]; IV 3 mg/kg) [L/h/kg] | Vd ([2]; IV 3 mg/kg) [L/kg] | AUC(0-t) ([2]; IV 3 mg/kg) [µM·h] | half-life ([2]; IV 3 mg/kg) [h] | C0 ([2]; IV 3 mg/kg) [µM] | bioavailability [2] [%] | AUC(0-t) ([2]; PO 10 mg/kg) [µM·h] | Cmax ([2]; PO 10 mg/kg) [µM] | Tmax ([2]; PO 10 mg/kg) [h] | Average body weight [3, 5] [g] | Average body weight [3, 6] [g] | Average body weight [3, 7] [g] | Average body weight [3, 8] [g] | Average body weight [3, 9] [g] | Average body weight [3, 10] [g] | Average body weight [3, 11] [g] | Average body weight [3, 12] [g] | Average body weight [3, 13] [g] | Average body weight [3, 14] [g] | other results |
| --- | --- | --- | --- | --- | --- | --- | --- | --- | --- | --- | --- | --- | --- | --- | --- | --- | --- | --- | --- | --- | --- |
| Cc1cc2cc(n1)-c1cnn(C)c1OCCC[C@@H](C)CN1/C(=N/C2=O)Nc2ccc(N=S(C)(C)=O)c(Cl)c21 [WX-019] | 5.7 | 0.516 | 1.6 | 10.6 | 2.5 | 5.73 | 65 | 23.2 | 3.92 | 1 | 20.6 | 20.7 | 20.8 | 20.7 | 20.9 | 22.5 | 23.4 | 23.0 | 22.8 | 23.3 | Body weight of the mice compared to the control group (tolerance) [3]: no significant difference |
| Cc1cc2cc(n1)-c1cnn(C)c1OCCC[C@@H](C)CN1/C(=N/C2=O)Nc2ccc(N=S3(=O)CCOCC3)cc21 [WX-013] | – | 0.282 | 1 | 18.9 | 3.3 | 12.1 | 34 | 21.5 | 3.94 | 1 | – | – | – | – | – | – | – | – | – | – | GI50 ([1]; read-out: Cell half-maximal inhibition concentration IC50 Ba/F3-FL-EGFR (L858R/T790M/C797S), 72 hours): 4.3 nM |
| Cc1cc2cc(n1)-c1cnn(C)c1OCCC[C@@H](C)CN1/C(=N/C2=O)Nc2ccc(N=S(C)(C)=O)cc21 [WX-006] | – | 0.876 | 1.9 | 6.54 | 3.6 | 8.14 | 83 | 18.1 | 3.59 | 1.5 | – | – | – | – | – | – | – | – | – | – | – |
| Cc1cc2cc(n1)-c1cnn(C)c1OCCC[C@@H](C)CN1/C(=N/C2=O)Nc2ccc(N=S3(=O)CCCC3)cc21 [WX-010 (trifluoroacetate)] | 2.8 | 0.342 | 1 | 16.1 | 2.8 | 8.14 | 56 | 30.1 | 4.49 | 1 | – | – | – | – | – | – | – | – | – | – | – |
| Cc1cc2cc(n1)-c1cnn(C)c1OC[C@H]1CC[C@H](C1)CN1/C(=N/C2=O)Nc2ccc(N=S(C)(C)=O)cc21 (single isomer, unassigned) [WX-027A] | 8.6 | 0.852 | 1 | 7.7 | 1.1 | 6.85 | 64 | 15.7 | 5.91 | 0.8 | 21.7 | 21.9 | 22.1 | 22.1 | 22.2 | 21.0 | 21.5 | 21.6 | 21.4 | 21.8 | Body weight of the mice compared to the control group (tolerance) [3]: no significant difference |
